Results as given in patent publication EP2520566A1, “New Pharmaceutical Compounds” (Orion Corporation, priority 2011, dated 2012).

Biological target: TRPA1 (Homo sapiens, UniProt O75762)
Assay: Determination of TRPA1 activity in vitro (TRPA1 antagonism in vitro), procedure of Wei et al., Anesthesiology 111 (2009) 147-154
Type: cell-based
Source text: EXPERIMENT 1: Determination of TRPA1 activity in vitro
The illustrative examples of the present invention were screened for TRPA1 activity according to a procedure described in Wei et al., Anesthesiology 111 (2009) 147-154. Table 1. TRPA1 antagonism in vitro.

Sequence of TRPA1 (O75762 whole entry): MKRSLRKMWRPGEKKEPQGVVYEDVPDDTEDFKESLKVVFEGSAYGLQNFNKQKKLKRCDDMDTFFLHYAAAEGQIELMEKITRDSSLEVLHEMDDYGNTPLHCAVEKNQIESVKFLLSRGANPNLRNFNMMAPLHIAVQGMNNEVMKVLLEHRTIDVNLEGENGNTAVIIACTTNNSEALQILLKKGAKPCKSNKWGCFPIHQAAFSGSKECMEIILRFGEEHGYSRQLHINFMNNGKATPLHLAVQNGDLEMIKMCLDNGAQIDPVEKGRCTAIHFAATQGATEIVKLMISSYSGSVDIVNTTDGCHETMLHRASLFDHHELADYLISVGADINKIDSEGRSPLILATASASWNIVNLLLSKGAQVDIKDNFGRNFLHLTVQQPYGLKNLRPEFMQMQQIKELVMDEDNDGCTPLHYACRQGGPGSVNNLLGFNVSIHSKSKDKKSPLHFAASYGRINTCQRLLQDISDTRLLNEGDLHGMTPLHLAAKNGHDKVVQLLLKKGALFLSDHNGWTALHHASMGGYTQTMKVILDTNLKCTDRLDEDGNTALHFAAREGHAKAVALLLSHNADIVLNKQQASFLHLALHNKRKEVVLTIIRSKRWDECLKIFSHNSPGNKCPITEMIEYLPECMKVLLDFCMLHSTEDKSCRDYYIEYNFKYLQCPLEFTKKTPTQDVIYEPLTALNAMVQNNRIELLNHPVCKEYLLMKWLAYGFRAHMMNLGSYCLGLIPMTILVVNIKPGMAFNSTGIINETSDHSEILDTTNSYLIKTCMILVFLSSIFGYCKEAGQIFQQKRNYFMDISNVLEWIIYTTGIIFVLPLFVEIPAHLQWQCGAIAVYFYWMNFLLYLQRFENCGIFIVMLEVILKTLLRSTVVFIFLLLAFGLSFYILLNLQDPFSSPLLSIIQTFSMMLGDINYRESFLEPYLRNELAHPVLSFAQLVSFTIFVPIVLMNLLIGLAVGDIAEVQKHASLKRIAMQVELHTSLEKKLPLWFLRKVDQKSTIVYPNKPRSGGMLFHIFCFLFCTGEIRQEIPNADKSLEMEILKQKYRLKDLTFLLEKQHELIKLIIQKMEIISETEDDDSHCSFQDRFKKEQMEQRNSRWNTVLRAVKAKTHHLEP

SMILES: CC(C)CSc1ccnc(CNC(=O)[C@@H]2CCCN2S(=O)(=O)c2ccc(F)cc2)c1 [Example 31, (S)-1-(4-Fluorophenylsulfonyl)-N-((4-(isobutylthio)pyridin-2-yl)methyl) pyrrolidine-2-carboxamide]
- IC50: 8.5 µM
